# Legend:
# SF-539 = assay: NCI single-dose growth inhibition screen; assay type: cell-based; conditions: Homo sapiens; CNS Cancer SF-539; single dose 10^−5 M
# SK-MEL-5 = assay: NCI single-dose growth inhibition screen; assay type: cell-based, human; conditions: Homo sapiens, SK-MEL-5, Melanoma SK-MEL-5; single dose 10^−5 M
# [1] = test system: P. aeruginosa ATCC 27,853; assay: Antibacterial screening, agar cup diffusion method; assay type: cell-based; conditions: Gram –ve strain; for MIC: Pseudomonas aeruginosa, ATCC27, read-out: Minimum inhibitory concentrations (MIC, µM) P. aeruginosa ATCC 27,853
# Experimental: (§1) Anti-bacterial activity of the recently synthesized compounds 3a-k was evaluated at AUMC (Assiut University Mycological Centre), Assiut, Egypt. Assays were done against Gram-negative strains of K. pneumoniae (ATCC 100310, E. coli (ATCC 25922), Pseudomonas aeruginosa (ATCC 27853) and the Gram-positive S. aureus (ATCC 6538) strain utilizing standard agar cup diffusion method. The isolates from the four bacterial species examined were kept in TSB (Trypticase Soya Broth, Becton and Dickinson) with 10% glycerol at -70 °C and then subcultured on TSA (Trypticase Soya Agar, Becton and Dickinson) and TSB for 24 h at 37 °C former to inoculation. Bacterial isolates were then plated on sterile petri plates with 1 × 10^8 CFU/mL (0.5 McFarland turbidity) and 20 mL of Mueller Hinton Agar media (Oxoid) was then loaded. To ensure that the microorganisms were evenly dispersed, the plates were gently rotated before being left to harden on a level surface. Four equally spaced spherical-shaped wells (10 mm diameter) were painstakingly drilled using a sterilized cork bore after media solidification. All tested compounds under test underwent two-fold serial dilutions in a sequential manner. Three replications of 100 µL of each concentration were added to a well using a micropipette. Plates were then incubated for 24-hour at 37 °C. The average of the inhibition zones was then calculated. To determine the MICs, the natural logarithm of each diluted test substance’s concentration was plotted against the average area of the related inhibition zone. Following that, a regression line was created and the intercept on the ‘ln concentration” axis was determined, and the antilogarithm was calculated to indicate the MIC value[34],[63].
# MDA-MB231 = assay: NCI single-dose growth inhibition screen; assay type: cell-based; conditions: Homo sapiens, MDA-MB-231; Breast Cancer MDA-MB231; single dose 10^−5 M
# SK-MEL-2 = assay: NCI single-dose growth inhibition screen; assay type: cell-based; conditions: Homo sapiens; Melanoma SK-MEL-2; single dose 10^−5 M
# CCRF-CEM = assay: NCI single-dose growth inhibition screen; assay type: cell-based; conditions: Homo sapiens; Leukemia CCRF-CEM; single dose 10^−5 M
# SNB-19 = assay: NCI single-dose growth inhibition screen; assay type: cell-based; conditions: Homo sapiens; CNS Cancer SNB-19; single dose 10^−5 M
# HOP-62 = assay: NCI single-dose growth inhibition screen; assay type: cell-based; conditions: Homo sapiens; Non-Small Cell Lung Cancer HOP-62; single dose 10^−5 M
# A549/ATCC = assay: NCI single-dose growth inhibition screen; assay type: cell-based; conditions: Homo sapiens; Non-Small Cell Lung Cancer A549/ATCC; single dose 10^−5 M
# EKVX = assay: NCI single-dose growth inhibition screen; assay type: cell-based; conditions: Homo sapiens; Non-Small Cell Lung Cancer EKVX; single dose 10^−5 M
# IGROV1 = assay: NCI single-dose growth inhibition screen; assay type: cell-based; conditions: Homo sapiens, IGROV-1; Ovarian Cancer IGROV1; single dose 10^−5 M
# MCF7 = assay: NCI single-dose growth inhibition screen; assay type: cell-based, human; conditions: single dose 10^−5 M; for inhibition at 10 µM: Homo sapiens, MCF7, Breast Cancer MCF7
# T-47D = assay: NCI single-dose growth inhibition screen; assay type: cell-based; conditions: Homo sapiens, T47D; Breast Cancer T-47D; single dose 10^−5 M
# HL-60(TB) = assay: NCI single-dose growth inhibition screen; assay type: cell-based; conditions: Homo sapiens; Leukemia HL-60(TB); single dose 10^−5 M
# SK-MEL-28 = assay: NCI single-dose growth inhibition screen; assay type: cell-based; conditions: Homo sapiens; Melanoma SK-MEL-28; single dose 10^−5 M
# SR = assay: NCI single-dose growth inhibition screen; assay type: cell-based; conditions: Homo sapiens; Leukemia SR; single dose 10^−5 M
# PC-3 = assay: NCI single-dose growth inhibition screen; assay type: cell-based; conditions: Homo sapiens; Prostate Cancer PC-3; single dose 10^−5 M
# S. aureus ATCC 6538 = assay: Antibacterial screening, agar cup diffusion method; assay type: cell-based; conditions: Gram + ve strain; for MIC: Staphylococcus aureus, ATCC6538, read-out: Minimum inhibitory concentrations (MIC, µM) S. aureus ATCC 6538
# Experimental: as §1
# NCI-H23 = assay: NCI single-dose growth inhibition screen; assay type: cell-based; conditions: Homo sapiens; Non-Small Cell Lung Cancer NCI-H23; single dose 10^−5 M
# OVCAR-4 = assay: NCI single-dose growth inhibition screen; assay type: cell-based; conditions: Homo sapiens; Ovarian Cancer OVCAR-4; single dose 10^−5 M
# NCI-H322M = assay: NCI single-dose growth inhibition screen; assay type: cell-based; conditions: Homo sapiens; Non-Small Cell Lung Cancer NCI-H322M; single dose 10^−5 M
# SF-268 = assay: NCI single-dose growth inhibition screen; assay type: cell-based; conditions: Homo sapiens; CNS Cancer SF-268; single dose 10^−5 M
# HS 578T = assay: NCI single-dose growth inhibition screen; assay type: cell-based; conditions: Homo sapiens; Breast Cancer HS 578T; single dose 10^−5 M
# HOP-92 = assay: NCI single-dose growth inhibition screen; assay type: cell-based; conditions: Homo sapiens; Non-Small Cell Lung Cancer HOP-92; single dose 10^−5 M
# UACC-257 = assay: NCI single-dose growth inhibition screen; assay type: cell-based; conditions: Homo sapiens; Melanoma UACC-257; single dose 10^−5 M
# UO-31 = assay: NCI single-dose growth inhibition screen; assay type: cell-based, human; conditions: single dose 10^−5 M; for inhibition at 10 µM: Homo sapiens, UO-31, Renal Cancer UO-31
# A498 = assay: NCI single-dose growth inhibition screen; assay type: cell-based, human; conditions: single dose 10^−5 M; for inhibition at 10 µM: Homo sapiens, A498, Renal Cancer A498
# NCI-H460 = assay: NCI single-dose growth inhibition screen; assay type: cell-based; conditions: Homo sapiens; Non-Small Cell Lung Cancer NCI-H460; single dose 10^−5 M
# E. coli ATCC 25,922 = assay: Antibacterial screening, agar cup diffusion method; assay type: cell-based; conditions: Escherichia coli, ATCC25, Gram –ve strain; read-out: Minimum inhibitory concentrations (MIC, µM) E. coli ATCC 25,922
# Experimental: as §1
# TK-10 = assay: NCI single-dose growth inhibition screen; assay type: cell-based; conditions: Homo sapiens; Renal Cancer TK-10; single dose 10^−5 M
# MALME-3 M = assay: NCI single-dose growth inhibition screen; assay type: cell-based; conditions: Homo sapiens; Melanoma MALME-3 M; single dose 10^−5 M
# BT-549 = assay: NCI single-dose growth inhibition screen; assay type: cell-based; conditions: Homo sapiens; Breast Cancer BT-549; single dose 10^−5 M
# MOLT-4 = assay: NCI single-dose growth inhibition screen; assay type: cell-based; conditions: Homo sapiens; Leukemia MOLT-4; single dose 10^−5 M
SMILES,inhibition at 10 µM (SF-539) [%],inhibition at 10 µM (SK-MEL-5) [%],MIC [1] [µM],inhibition at 10 µM (MDA-MB231) [%],inhibition at 10 µM (SK-MEL-2) [%],inhibition at 10 µM (CCRF-CEM) [%],inhibition at 10 µM (SNB-19) [%],inhibition at 10 µM (HOP-62) [%],inhibition at 10 µM (A549/ATCC) [%],inhibition at 10 µM (EKVX) [%],inhibition at 10 µM (IGROV1) [%],inhibition at 10 µM (MCF7) [%],inhibition at 10 µM (T-47D) [%],inhibition at 10 µM (HL-60(TB)) [%],inhibition at 10 µM (SK-MEL-28) [%],inhibition at 10 µM (SR) [%],inhibition at 10 µM (PC-3) [%],MIC (S. aureus ATCC 6538) [µM],inhibition at 10 µM (NCI-H23) [%],inhibition at 10 µM (OVCAR-4) [%],other results
COc1cc(/C=C2\SC(=O)N(CCCC(=O)N3CCN(c4cc5c(cc4F)c(=O)c(C(=O)O)cn5C4CC4)CC3)C2=O)cc(OC)c1OC [3 g],0.5,< 0,> 20,< 0,< 0,< 0,< 0,< 0,3.5,< 0,< 0,3.6,< 0,< 0,< 0,5.4,< 0,> 20,2.6,< 0,"inhibition at 10 µM (NCI-H322M): 5.1%; inhibition at 10 µM (SF-268): 4.4%; inhibition at 10 µM (HS 578T): 3.2%; inhibition at 10 µM (HOP-92): < 0%; inhibition at 10 µM (UACC-257): 6.7%; inhibition at 10 µM (UO-31): 1.5%; inhibition at 10 µM (A498): 2.3%; inhibition at 10 µM (NCI-H460): < 0%; MIC (E. coli ATCC 25,922): 0.25 µM; inhibition at 10 µM (TK-10): < 0%; inhibition at 10 µM (MALME-3 M): < 0%; inhibition at 10 µM (BT-549): < 0%; inhibition at 10 µM (MOLT-4): < 0%"
O=C(O)c1cn(C2CC2)c2cc(N3CCN(C(=O)CCCN4C(=O)S/C(=C\c5ccc(F)cc5)C4=O)CC3)c(F)cc2c1=O [3i],5.8,5.5,> 20,26.4,< 0,4.2,6.2,2.9,10.4,< 0,1.3,1.3,5,< 0,1.5,3.6,< 0,> 20,6.5,0.5,"Minimum inhibitory concentrations (MIC, µM) P. aeruginosa ATCC 27,853 [1]: did not show considerable anti-bacterial activity; Minimum inhibitory concentrations (MIC, µM) S. aureus ATCC 6538 (S. aureus ATCC 6538): did not show considerable anti-bacterial activity; inhibition at 10 µM (NCI-H322M): 11.5%; inhibition at 10 µM (SF-268): 3.1%; inhibition at 10 µM (HS 578T): 3%; inhibition at 10 µM (HOP-92): 5.7%; inhibition at 10 µM (UACC-257): 12.3%; inhibition at 10 µM (UO-31): 21.7%; inhibition at 10 µM (A498): 41.5%; Growth Inhibition (%) (A498; Renal Cancer A498): 41.5%; inhibition at 10 µM (NCI-H460): < 0%; MIC (E. coli ATCC 25,922): 0.54 µM; inhibition at 10 µM (TK-10): 4.7%; inhibition at 10 µM (MALME-3 M): 14.8%; inhibition at 10 µM (BT-549): 8.6%; inhibition at 10 µM (MOLT-4): < 0%"
"O=C(O)c1cn(C2CC2)c2cc(N3CCN(C(=O)CCCN4C(=O)SC(=Cc5cccc([N+](=O)[O-])c5)C4=O)CC3)c(F)cc2c1=O [3d, 1-cyclopropyl-6-fluoro-7-[4-[4-[5-[(3-nitrophenyl)methylene]-2,4-dioxo-thiazolidin-3-yl]butanoyl]piperazin-1-yl]-4-oxoquinoline-3-carboxylic acid]",9.5,2.3,0.87,8,2.9,< 0,1,5.2,7.8,2.3,1.6,1.9,< 0,< 0,< 0,< 0,< 0,> 20,7.9,2.6,"inhibition at 10 µM (NCI-H322M): 6.8%; inhibition at 10 µM (SF-268): 2.4%; inhibition at 10 µM (HS 578T): 8.2%; inhibition at 10 µM (HOP-92): < 0%; inhibition at 10 µM (UACC-257): 8.1%; inhibition at 10 µM (UO-31): 20.7%; inhibition at 10 µM (A498): 8.9%; inhibition at 10 µM (NCI-H460): < 0%; MIC (E. coli ATCC 25,922): 0.2 µM; inhibition at 10 µM (TK-10): < 0%; inhibition at 10 µM (MALME-3 M): 9.8%; inhibition at 10 µM (BT-549): 3%; inhibition at 10 µM (MOLT-4): < 0%"
"O=C(O)c1cn(C2CC2)c2cc(N3CCN(C(=O)CCCN4C(=O)SC(=Cc5ccccc5)C4=O)CC3)c(F)cc2c1=O [3a, 7-[4-[4-[5-benzylidene-2,4-dioxo-thiazolidin-3-yl]butanoyl]piperazin-1-yl]-1-cyclopropyl-6-fluoro-4-oxo-quinoline-3-carboxylic acid]",8.9,24.6,> 20,25.2,10.1,9.8,9.8,< 0,14.2,< 0,8.5,55.9,8.1,< 0,9,29.9,< 0,> 20,10.2,2.5,"Growth Inhibition (%) (MCF7; Breast Cancer MCF7): 55.9%; inhibition at 10 µM (NCI-H322M): 9.4%; inhibition at 10 µM (SF-268): 12.4%; inhibition at 10 µM (HS 578T): 8.8%; inhibition at 10 µM (HOP-92): < 0%; inhibition at 10 µM (UACC-257): 21.1%; inhibition at 10 µM (UO-31): 53.2%; Growth Inhibition (%) (UO-31; Renal Cancer UO-31): 36.0%; inhibition at 10 µM (A498): 41.4%; inhibition at 10 µM (NCI-H460): 3.7%; MIC (E. coli ATCC 25,922): 0.2 µM; inhibition at 10 µM (TK-10): < 0%; inhibition at 10 µM (MALME-3 M): 30.4%; inhibition at 10 µM (BT-549): 7.3%; inhibition at 10 µM (MOLT-4): 12.6%"

# Reference: article PMC11480511 (Scientific Reports, 2024)
